Our source for the IC50 values is US9340590B2 (priority 2011, dated 2016).

What all share (experiment): cell-based
The target of experiment [1] is hNav1.3 (Homo sapiens, UniProt Q9NY46). The following applies: Table 23; IonWorks Quattro, use; […]; read-out: IWQ Use Nav1.3. A general note: Patch clamp records ionic current or voltage across a cell membrane.
In experiment [2] the target is hNav1.5 (Homo sapiens, UniProt Q14524). The following applies: IWQ Use Nav1.5 (μM).
In experiment [3] the target is hNav1.7 (Homo sapiens, UniProt Q15858).

Molecules are shown by their SMILES. Where two headings read alike, the source gives them in different places. Positions of bridges follow the written chain, without caps; N, C: chain ends. Non-standard residues stand in square brackets, D forms with d. Residues, ends and D or L forms follow the SMILES beside them. Lys(Me2) = CN(C)CCCC[C@H](N)C(=O)O

Sequence of hNav1.7 (Q15858 whole entry, looked up): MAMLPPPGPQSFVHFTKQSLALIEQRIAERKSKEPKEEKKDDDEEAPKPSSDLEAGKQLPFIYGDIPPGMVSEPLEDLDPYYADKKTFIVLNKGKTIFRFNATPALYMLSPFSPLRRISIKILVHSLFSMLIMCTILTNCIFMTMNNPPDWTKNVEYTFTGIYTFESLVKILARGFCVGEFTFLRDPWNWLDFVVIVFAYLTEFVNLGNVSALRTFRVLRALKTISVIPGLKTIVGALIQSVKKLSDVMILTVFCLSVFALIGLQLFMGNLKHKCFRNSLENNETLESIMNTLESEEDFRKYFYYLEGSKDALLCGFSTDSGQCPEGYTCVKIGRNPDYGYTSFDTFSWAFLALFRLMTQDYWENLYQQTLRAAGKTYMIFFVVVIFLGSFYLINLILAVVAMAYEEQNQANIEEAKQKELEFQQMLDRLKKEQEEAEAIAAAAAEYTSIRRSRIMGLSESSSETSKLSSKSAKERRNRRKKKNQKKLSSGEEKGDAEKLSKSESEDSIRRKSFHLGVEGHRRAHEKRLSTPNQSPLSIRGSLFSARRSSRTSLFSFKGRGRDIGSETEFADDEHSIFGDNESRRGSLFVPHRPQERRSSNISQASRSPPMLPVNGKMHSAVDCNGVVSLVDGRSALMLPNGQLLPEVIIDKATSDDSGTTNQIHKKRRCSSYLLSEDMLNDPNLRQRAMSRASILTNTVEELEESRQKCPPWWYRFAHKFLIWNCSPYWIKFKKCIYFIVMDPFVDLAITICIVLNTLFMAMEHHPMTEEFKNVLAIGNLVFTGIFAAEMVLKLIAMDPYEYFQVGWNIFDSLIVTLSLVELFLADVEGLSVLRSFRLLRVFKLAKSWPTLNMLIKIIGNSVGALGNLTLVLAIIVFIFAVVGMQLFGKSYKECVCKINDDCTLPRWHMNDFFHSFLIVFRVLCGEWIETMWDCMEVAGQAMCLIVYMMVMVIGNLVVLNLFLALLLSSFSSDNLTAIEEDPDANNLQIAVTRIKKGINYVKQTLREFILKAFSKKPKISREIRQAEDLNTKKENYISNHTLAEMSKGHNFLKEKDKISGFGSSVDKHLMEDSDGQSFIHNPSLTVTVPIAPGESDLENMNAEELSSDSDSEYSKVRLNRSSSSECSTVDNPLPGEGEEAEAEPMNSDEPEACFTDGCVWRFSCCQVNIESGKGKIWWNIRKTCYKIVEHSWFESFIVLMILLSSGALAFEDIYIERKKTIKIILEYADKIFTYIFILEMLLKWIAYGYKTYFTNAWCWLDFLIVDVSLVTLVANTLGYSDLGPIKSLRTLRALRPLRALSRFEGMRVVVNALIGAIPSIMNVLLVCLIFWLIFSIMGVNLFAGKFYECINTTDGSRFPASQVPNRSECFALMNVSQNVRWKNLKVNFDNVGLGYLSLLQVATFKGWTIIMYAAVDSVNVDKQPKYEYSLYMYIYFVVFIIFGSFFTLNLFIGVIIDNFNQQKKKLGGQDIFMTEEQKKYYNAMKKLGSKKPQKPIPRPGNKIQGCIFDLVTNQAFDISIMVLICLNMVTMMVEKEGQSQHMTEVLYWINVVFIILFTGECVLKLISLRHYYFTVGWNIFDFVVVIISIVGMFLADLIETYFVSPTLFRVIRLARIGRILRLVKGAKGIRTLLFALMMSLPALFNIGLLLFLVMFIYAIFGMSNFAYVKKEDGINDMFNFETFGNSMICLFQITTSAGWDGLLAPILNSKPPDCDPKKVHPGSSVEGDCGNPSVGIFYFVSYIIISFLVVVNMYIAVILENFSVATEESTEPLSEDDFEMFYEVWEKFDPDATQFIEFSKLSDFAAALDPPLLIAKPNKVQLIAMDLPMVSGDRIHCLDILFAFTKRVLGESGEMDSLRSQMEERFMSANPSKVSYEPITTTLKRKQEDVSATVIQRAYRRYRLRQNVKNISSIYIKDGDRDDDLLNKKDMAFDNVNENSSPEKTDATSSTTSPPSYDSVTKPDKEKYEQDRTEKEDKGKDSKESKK
Sequence of hNav1.5 (Q14524 whole entry, looked up): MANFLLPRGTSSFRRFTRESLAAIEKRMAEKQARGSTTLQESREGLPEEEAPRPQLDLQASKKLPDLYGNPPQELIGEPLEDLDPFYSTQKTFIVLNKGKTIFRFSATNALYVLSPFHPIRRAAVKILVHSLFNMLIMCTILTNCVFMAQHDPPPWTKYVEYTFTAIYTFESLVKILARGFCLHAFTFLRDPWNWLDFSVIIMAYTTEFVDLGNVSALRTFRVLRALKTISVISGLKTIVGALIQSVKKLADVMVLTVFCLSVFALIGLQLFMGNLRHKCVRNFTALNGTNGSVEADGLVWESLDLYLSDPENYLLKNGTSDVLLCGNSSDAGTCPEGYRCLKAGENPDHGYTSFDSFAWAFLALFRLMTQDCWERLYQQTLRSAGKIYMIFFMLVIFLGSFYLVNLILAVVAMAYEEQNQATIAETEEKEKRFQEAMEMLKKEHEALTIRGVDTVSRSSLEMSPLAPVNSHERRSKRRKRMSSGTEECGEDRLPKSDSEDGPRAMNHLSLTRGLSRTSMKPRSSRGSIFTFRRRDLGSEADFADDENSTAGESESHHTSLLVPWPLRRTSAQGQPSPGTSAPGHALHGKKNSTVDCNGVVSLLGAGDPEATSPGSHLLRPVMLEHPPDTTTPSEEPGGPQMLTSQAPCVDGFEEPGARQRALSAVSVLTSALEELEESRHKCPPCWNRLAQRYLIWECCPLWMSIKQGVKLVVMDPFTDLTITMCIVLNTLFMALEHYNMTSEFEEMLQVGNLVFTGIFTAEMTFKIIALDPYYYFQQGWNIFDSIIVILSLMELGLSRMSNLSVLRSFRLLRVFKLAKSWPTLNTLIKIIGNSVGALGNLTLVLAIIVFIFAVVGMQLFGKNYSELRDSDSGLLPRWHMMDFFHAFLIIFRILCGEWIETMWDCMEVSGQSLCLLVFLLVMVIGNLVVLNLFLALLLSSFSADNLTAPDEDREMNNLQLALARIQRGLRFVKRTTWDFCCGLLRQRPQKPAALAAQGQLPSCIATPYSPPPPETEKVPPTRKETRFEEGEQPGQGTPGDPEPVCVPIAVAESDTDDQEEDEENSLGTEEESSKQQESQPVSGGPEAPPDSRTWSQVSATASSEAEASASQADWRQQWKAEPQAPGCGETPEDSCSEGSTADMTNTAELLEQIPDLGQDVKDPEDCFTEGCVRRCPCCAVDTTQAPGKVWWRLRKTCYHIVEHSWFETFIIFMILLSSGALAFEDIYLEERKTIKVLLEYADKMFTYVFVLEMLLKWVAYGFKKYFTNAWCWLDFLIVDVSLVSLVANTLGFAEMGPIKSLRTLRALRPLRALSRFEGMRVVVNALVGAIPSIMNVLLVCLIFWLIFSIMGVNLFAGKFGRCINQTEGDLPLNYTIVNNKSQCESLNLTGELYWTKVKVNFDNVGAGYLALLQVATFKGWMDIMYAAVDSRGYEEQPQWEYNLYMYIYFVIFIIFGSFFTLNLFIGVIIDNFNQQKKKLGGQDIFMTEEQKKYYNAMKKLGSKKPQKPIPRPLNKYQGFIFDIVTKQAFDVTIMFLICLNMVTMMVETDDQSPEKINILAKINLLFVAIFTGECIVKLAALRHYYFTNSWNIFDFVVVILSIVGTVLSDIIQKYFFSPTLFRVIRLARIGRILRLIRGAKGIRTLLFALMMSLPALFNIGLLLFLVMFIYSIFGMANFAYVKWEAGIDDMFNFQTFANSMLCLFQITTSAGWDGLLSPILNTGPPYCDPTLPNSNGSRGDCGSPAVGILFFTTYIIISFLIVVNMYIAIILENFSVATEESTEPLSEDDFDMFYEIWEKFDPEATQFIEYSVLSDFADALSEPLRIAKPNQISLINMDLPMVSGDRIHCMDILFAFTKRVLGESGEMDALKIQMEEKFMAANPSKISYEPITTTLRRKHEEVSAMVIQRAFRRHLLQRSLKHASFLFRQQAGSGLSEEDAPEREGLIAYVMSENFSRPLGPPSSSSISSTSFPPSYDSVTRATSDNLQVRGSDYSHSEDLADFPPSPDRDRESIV

Consider `CC[C@H](C)[C@@H]1NC(=O)[C@@H]2CSSC[C@@H]3NC(=O)[C@H](C(C)C)NC(=O)[C@H](CC(C)C)NC(=O)[C@H](CC(N)=O)NC(=O)[C@@H]4CCCN4C(=O)[C@H](CCCNC(=N)N)NC(=O)[C@H](CSSC[C@H](NC(=O)[C@@H](N)CC(=O)O)C(=O)N[C@@H](CC(C)C)C(=O)NCC(=O)N[C@@H](Cc4ccccc4)C(=O)N[C@@H](CCSC)C(=O)N[C@@H](CCCNC(=N)N)C(=O)N[C@@H](CCCCN)C(=O)N2)NC(=O)[C@H](CSSC[C@@H](C(=O)N[C@@H](CCCCN)C(=O)N[C@@H](Cc2ccc(O)cc2)C(=O)N[C@H](C(=O)N[C@@H](Cc2ccccc2)C(N)=O)C(C)C)NC(=O)[C@H](Cc2c[nH]c4ccccc24)NC(=O)[C@H](CCC(=O)O)NC(=O)[C@H](Cc2cnc[nH]2)NC(=O)[C@H]([C@@H](C)O)NC(=O)[C@H](CCCNC(=N)N)NC(=O)[C@H](CO)NC3=O)NC(=O)[C@H](CCCCN)NC(=O)[C@H](CC(=O)O)NC(=O)[C@H](CC(N)=O)NC(=O)[C@H](CC(=O)O)NC(=O)[C@@H]2CCCN2C1=O` [SEQ ID NO: 153, [Glu28]GpTx-1(1-34)] (H-DCLGFMRKCIPDNDKCCRPNLVCSRTHEWCKYVF-NH2; disulfide 2-17, 9-23, 16-30), for which the IC50 came out at 800 nM in experiment [1], 14.1 µM in experiment [2] and 50.1 nM in experiment [3] (Nav1.7 Use IC50). As for `CC[C@H](C)[C@@H]1NC(=O)[C@@H]2CSSC[C@@H]3NC(=O)[C@H](C(C)C)NC(=O)[C@H](CC(C)C)NC(=O)[C@H](CC(N)=O)NC(=O)[C@@H]4CCCN4C(=O)[C@H](CCCCN(C)C)NC(=O)[C@H](CSSC[C@H](NC(=O)[C@@H](N)CC(=O)O)C(=O)N[C@@H](CC(C)C)C(=O)NCC(=O)N[C@@H](Cc4ccccc4)C(=O)N[C@@H](CCSC)C(=O)N[C@@H](CCCNC(=N)N)C(=O)N[C@@H](CCCCN)C(=O)N2)NC(=O)[C@H](CSSC[C@@H](C(=O)N[C@@H](CCCCN)C(=O)N[C@@H](Cc2ccc(O)cc2)C(=O)N[C@H](C(=O)N[C@@H](Cc2ccccc2)C(N)=O)C(C)C)NC(=O)[C@H](Cc2c[nH]c4ccccc24)NC(=O)[C@H](CCCCN)NC(=O)[C@H](Cc2c[nH]cn2)NC(=O)[C@H]([C@@H](C)O)NC(=O)[C@H](CCCNC(=N)N)NC(=O)[C@H](CO)NC3=O)NC(=O)[C@H](CCCCN)NC(=O)[C@H](CC(=O)O)NC(=O)[C@H](CC(N)=O)NC(=O)[C@H](CC(=O)O)NC(=O)[C@@H]2CCCN2C1=O` [[K(Me2)18]GpTx-1(1-34)] (H-DCLGFMRKCIPDNDKCC[Lys(Me2)]PNLVCSRTHKWCKYVF-NH2; disulfide 2-17, 9-23, 16-30), the IC50 in experiment [3] (read-out: Nav1.7 Use IC50) came out at 5 nM. Compound `CC[C@H](C)[C@@H]1NC(=O)[C@@H]2CSSC[C@@H]3NC(=O)[C@H](C(C)C)NC(=O)[C@H](CC(C)C)NC(=O)[C@H](CC(N)=O)NC(=O)[C@@H]4CCCN4C(=O)[C@H](CCCNC(=N)N)NC(=O)[C@H](CSSC[C@H](NC(=O)[C@@H](N)CC(=O)O)C(=O)N[C@@H](CC(C)C)C(=O)NCC(=O)N(C)[C@@H](CC(C)C)C(=O)N[C@@H](CCSC)C(=O)N[C@@H](CCCNC(=N)N)C(=O)N[C@@H](CCCCN)C(=O)N2)NC(=O)[C@H](CSSC[C@@H](C(=O)N[C@@H](CCCCN)C(=O)N[C@@H](Cc2ccc(O)cc2)C(=O)N[C@H](C(=O)N[C@@H](Cc2ccccc2)C(N)=O)C(C)C)NC(=O)[C@H](Cc2c[nH]c4ccccc24)NC(=O)[C@H](CCCCN)NC(=O)[C@H](Cc2cnc[nH]2)NC(=O)[C@H]([C@@H](C)O)NC(=O)[C@H](CCCNC(=N)N)NC(=O)[C@H](CO)NC3=O)NC(=O)[C@H](CCCCN)NC(=O)[C@H](CC(=O)O)NC(=O)[C@H](CC(N)=O)NC(=O)[C@H](CC(=O)O)NC(=O)[C@@H]2CCCN2C1=O` [[NMeLeu5]GpTx-1(1-34)] came in with an IC50 in experiment [3] (Nav1.7 Use IC50) of 26 nM.

Regarding `CCC[C@@H]1NC(=O)CNC(=O)[C@H](CC(C)C)NC(=O)[C@@H](NC(=O)[C@@H](N)CC(=O)O)CSSC[C@@H]2NC(=O)[C@@H]3CSSC[C@@H](C(=O)N[C@@H](CCCCN)C(=O)N[C@@H](Cc4ccc(O)cc4)C(=O)N[C@H](C(=O)N[C@@H](Cc4ccccc4)C(N)=O)C(C)C)NC(=O)[C@H](Cc4c[nH]c5ccccc45)NC(=O)[C@H](CCCCN)NC(=O)[C@H](Cc4cnc[nH]4)NC(=O)[C@H]([C@@H](C)O)NC(=O)[C@H](CCCNC(=N)N)NC(=O)[C@H](CO)NC(=O)[C@H](CSSC[C@H](NC(=O)[C@H](CCCCN)NC(=O)[C@H](CCCNC(=N)N)NC(=O)[C@H](CCSC)NC1=O)C(=O)N[C@@H]([C@@H](C)CC)C(=O)N1CCC[C@H]1C(=O)N[C@@H](CC(=O)O)C(=O)N[C@@H](CC(N)=O)C(=O)N[C@@H](CC(=O)O)C(=O)N[C@@H](CCCCN)C(=O)N3)NC(=O)[C@H](C(C)C)NC(=O)[C@H](CC(C)C)NC(=O)[C@H](CC(N)=O)NC(=O)[C@@H]1CCCN1C(=O)[C@H](CCCNC(=N)N)NC2=O` [[Nva5]GpTx-1(1-34)], the IC50 in experiment [3] (Nav1.7 Use IC50) stood at 38 nM.

Take `CC[C@H](C)[C@@H]1NC(=O)[C@@H]2CSSC[C@@H]3NC(=O)[C@H](C(C)C)NC(=O)[C@H](CC(C)C)NC(=O)[C@H](CC(N)=O)NC(=O)[C@@H]4CCCN4C(=O)[C@H](CCCNC(=N)N)NC(=O)[C@H](CSSC[C@H](NC(=O)[C@@H](N)CC(=O)O)C(=O)N[C@@H](CC(C)C)C(=O)NCC(=O)N[C@@H](C(C)(C)C)C(=O)N[C@@H](CCSC)C(=O)N[C@@H](CCCNC(=N)N)C(=O)N[C@@H](CCCCN)C(=O)N2)NC(=O)[C@H](CSSC[C@@H](C(=O)N[C@@H](CCCCN)C(=O)N[C@@H](Cc2ccc(O)cc2)C(=O)N[C@H](C(=O)N[C@@H](Cc2ccccc2)C(N)=O)C(C)C)NC(=O)[C@H](Cc2c[nH]c4ccccc24)NC(=O)[C@H](CCCCN)NC(=O)[C@H](Cc2cnc[nH]2)NC(=O)[C@H]([C@@H](C)O)NC(=O)[C@H](CCCNC(=N)N)NC(=O)[C@H](CO)NC3=O)NC(=O)[C@H](CCCCN)NC(=O)[C@H](CC(=O)O)NC(=O)[C@H](CC(N)=O)NC(=O)[C@H](CC(=O)O)NC(=O)[C@@H]2CCCN2C1=O` [[Tle5]GpTx-1(1-34)]: the IC50 in experiment [3] (Nav1.7 Use IC50) was found to be 23 nM.
